The test system of the experiment is MOLM-13. Briefly: Induction of apoptosis in human MOLM13 cells assessed as late apoptotic cells at 1 uM after 48 hrs by Annexin V/propidium iodide staining based flow cytometry (reference value: 5.52%). In kind it is functional.

Take `C=CCn1cc(-c2ccc(NC(=O)Nc3cc(C(C)(C)C)on3)cc2)c2c(N)ncnc21`: the Activity was found to be 46.8%.
